± gives the standard deviation of the averaged measurements.
Experiments:
MK-1775 = compound: C=CCn1c(=O)c2cnc(Nc3ccc(N4CCN(C)CC4)cc3)nc2n1-c1cccc(C(C)(C)O)n1 [MK-1775]; experiment: surviving fraction relative to DMSO-only wells; higher = less growth inhibition; settings: exposure time: 5 days
Method in brief: (§1)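 Inhibitors were tested at 0.5, 1, 5, 10, 50, 100, 500 and 1000 nM, applied continuously for five days beginning 24 hours after log-phase tumour cells were seeded at 250–500 per well in 384-well plates. CellTiter-Glo luminescence served as the viability measure, expressed as surviving fraction against the median of DMSO-only wells. Each line, screened three times, was kept only with replicate Pearson r >0.7 and median Z' >0.3.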

BLEOMYCIN = compound: Cc1c(N)nc([C@H](CC(N)=O)NC[C@H](N)C(N)=O)nc1C(=O)N[C@H](C(=O)N[C@H](C)[C@@H](O)[C@H](C)C(=O)N[C@H](C(=O)NCCc1nc(-c2nc(C(=O)NCCC[S+](C)C)cs2)cs1)[C@@H](C)O)[C@@H](OC1OC(CO)C(O)C(O)C1OC1OC(CO)C(O)C(OC(N)=O)C1O)c1cnc[nH]1 [BLEOMYCIN]; experiment: as above; settings: exposure time: 5 days
Method in brief: as §1

Test System	surviving fraction (MK-1775; 0.5 nM)	surviving fraction (MK-1775; 1 nM)	surviving fraction (MK-1775; 5 nM)	surviving fraction (MK-1775; 10 nM)	surviving fraction (MK-1775; 50 nM)	surviving fraction (MK-1775; 100 nM)	surviving fraction (MK-1775; 500 nM)	surviving fraction (MK-1775; 1000 nM)	surviving fraction (BLEOMYCIN; 0.5 nM)	surviving fraction (BLEOMYCIN; 1 nM)	surviving fraction (BLEOMYCIN; 5 nM)	surviving fraction (BLEOMYCIN; 10 nM)	surviving fraction (BLEOMYCIN; 50 nM)	surviving fraction (BLEOMYCIN; 100 nM)	surviving fraction (BLEOMYCIN; 500 nM)	surviving fraction (BLEOMYCIN; 1000 nM)
SUM159 BREAST	1.06 ± 0.023	1.03 ± 0.021	1.04 ± 0.028	1.02 ± 0.022	1.01 ± 0.069	1.02 ± 0.057	0.69 ± 0.17	0.377 ± 0.16	1.07 ± 0.18	1.02 ± 0.094	1.01 ± 0.082	0.999 ± 0.086	0.948 ± 0.034	0.908 ± 0.031	0.673 ± 0.13	0.246 ± 0.065
SYO1 SYNOVIAL	1.01 ± 0.014	0.977 ± 0.053	1 ± 0.014	0.9618 ± 0.0076	0.658 ± 0.033	0.317 ± 0.076	0.473 ± 0.11	0.0491 ± 0.0039	0.809 ± 0.058	0.778 ± 0.044	0.753 ± 0.035	0.695 ± 0.029	0.45 ± 0.014	0.355 ± 0.032	0.104 ± 0.019	0.0704 ± 0.019
T47D BREAST	1.07 ± 0.021	1.05 ± 0.014	1.1 ± 0.044	1.01 ± 0.015	1.06 ± 0.065	0.979 ± 0.025	0.453 ± 0.025	0.38 ± 0.024	0.947 ± 0.019	0.915 ± 0.011	0.891 ± 0.02	0.9369 ± 0.0063	0.951 ± 0.02	0.923 ± 0.039	0.693 ± 0.011	0.57 ± 0.03
U2OS BONE	1.03 ± 0.028	0.991 ± 0.043	1.07 ± 0.032	1.07 ± 0.034	0.922 ± 0.039	0.641 ± 0.028	0.133 ± 0.002	0.0693 ± 0.0045	0.904 ± 0.028	0.942 ± 0.05	0.933 ± 0.04	0.9 ± 0.039	1.01 ± 0.023	0.8983 ± 0.0064	0.734 ± 0.017	0.617 ± 0.011
VCAP PROSTATE	1.14 ± 0.079	1.14 ± 0.19	1.09 ± 0.042	1.08 ± 0.08	1.04 ± 0.12	0.52 ± 0.11	0.0963 ± 0.019	0.121 ± 0.019	0.905 ± 0.018	0.953 ± 0.077	1.07 ± 0.12	1.05 ± 0.12	1.07 ± 0.12	1.02 ± 0.078	0.84 ± 0.024	0.889 ± 0.081
VP229 BREAST	1.13 ± 0.14	1.01 ± 0.044	1.01 ± 0.056	1.07 ± 0.063	1.02 ± 0.034	0.754 ± 0.093	0.41 ± 0.056	0.261 ± 0.013	0.776 ± 0.093	0.759 ± 0.052	0.754 ± 0.081	0.711 ± 0.072	0.915 ± 0.089	0.893 ± 0.093	0.837 ± 0.08	0.665 ± 0.076
YAMATO SYNOVIAL	1.31 ± 0.14	1.29 ± 0.064	1.43 ± 0.074	1.2 ± 0.093	1.27 ± 0.12	0.972 ± 0.036	0.463 ± 0.031	0.424 ± 0.018	0.889 ± 0.13	0.929 ± 0.095	0.955 ± 0.081	1.03 ± 0.075	1.21 ± 0.083	1.11 ± 0.08	0.871 ± 0.088	0.796 ± 0.033
ZR751 BREAST	1.18 ± 0.14	1 ± 0.16	0.999 ± 0.19	1.04 ± 0.15	1.01 ± 0.16	1.04 ± 0.17	0.733 ± 0.1	0.622 ± 0.086	0.985 ± 0.037	0.975 ± 0.083	0.925 ± 0.1	0.957 ± 0.19	0.905 ± 0.073	0.924 ± 0.17	0.897 ± 0.15	0.69 ± 0.12

Reference: the supplement of paper PMC6045584
